Legend:
Experiment in all cases: viability relative to DMSO control (fraction); higher = less drug effect (more viable cells)
Details in all cases: 48 h
Quizartinib = compound: CC(C)(C)c1cc(NC(=O)Nc2ccc(-c3cn4c(n3)sc3cc(OCCN5CCOCC5)ccc34)cc2)no1 [Quizartinib]
Summary of the method: (§1)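 Viability was quantified by CellTiter-Glo luminescence and related to the median of 16 inner DMSO wells. Before that, primary mononuclear tumour cells, fresh or cryopreserved and Ficoll-isolated from blood or bone marrow or prepared from processed lymph node, were plated at 4 × 10^4 cells per well in 384-well plates containing pre-plated compounds at five concentrations, one well each. Plates were incubated in RPMI-1640 with penicillin/streptomycin, L-glutamine and human serum at 37 °C and 5% CO2 for 48 h.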

AZD7762 = compound: NC(=O)Nc1cc(-c2cccc(F)c2)sc1C(=O)N[C@H]1CCCNC1 [AZD7762]
Summary of the method: as §1

MLN-120B = compound: COc1c(Cl)cc2c([nH]c3cnccc32)c1NC(=O)c1cccnc1C [MLN-120B]
Summary of the method: as §1

Tozasertib = compound: Cc1cc(Nc2cc(N3CCN(C)CC3)nc(Sc3ccc(NC(=O)C4CC4)cc3)n2)n[nH]1 [Tozasertib]
Summary of the method: as §1

Idarubicin = compound: CC(=O)[C@]1(O)Cc2c(O)c3c(c(O)c2[C@@H](O[C@H]2C[C@H](N)[C@H](O)[C@H](C)O2)C1)C(=O)c1ccccc1C3=O [Idarubicin]
Summary of the method: as §1

ONO-4059 = compound: CC#CC(=O)N1CC[C@@H](n2c(=O)n(-c3ccc(Oc4ccccc4)cc3)c3c(N)ncnc32)C1 [ONO-4059]
Summary of the method: as §1

BI6727 = compound: CC[C@@H]1C(=O)N(C)c2cnc(Nc3ccc(C(=O)N[C@H]4CC[C@H](N5CCN(CC6CC6)CC5)CC4)cc3OC)nc2N1C(C)C [BI6727]
Summary of the method: as §1

Vemurafenib = compound: CCCS(=O)(=O)Nc1ccc(F)c(C(=O)c2c[nH]c3ncc(-c4ccc(Cl)cc4)cc23)c1F [Vemurafenib]
Summary of the method: as §1

EPZ-5676 = compound: CC(C)N(C[C@H]1O[C@@H](n2cnc3c(N)ncnc32)[C@H](O)[C@@H]1O)[C@H]1C[C@@H](CCc2nc3cc(C(C)(C)C)ccc3[nH]2)C1 [EPZ-5676]
Summary of the method: as §1

[1] = compound: OCc1ccc(-c2ccc(-c3ccc(CO)s3)o2)s1
Summary of the method: as §1

Cladribine = compound: Nc1nc(Cl)nc2c1ncn2[C@H]1C[C@H](O)[C@@H](CO)O1 [Cladribine]
Summary of the method: as §1

Carfilzomib = compound: CC(C)C[C@H](NC(=O)[C@H](CCc1ccccc1)NC(=O)CN1CCOCC1)C(=O)N[C@@H](Cc1ccccc1)C(=O)N[C@@H](CC(C)C)C(=O)[C@@]1(C)CO1 [Carfilzomib]
Summary of the method: as §1

[2] = compound: CC(C)(C)OC(=O)Nc1ccc(-c2cc(C(=O)NCCCCCCC(=O)NO)no2)cc1
Summary of the method: as §1

Panobinostat = compound: Cc1[nH]c2ccccc2c1CCNCc1ccc(/C=C/C(=O)NO)cc1 [Panobinostat]
Summary of the method: as §1

ERK5-IN-1 = compound: CCOc1cc(C(=O)N2CCC(N3CCN(C)CC3)CC2)ccc1Nc1ncc2c(n1)N(C1CCCC1)c1ccccc1C(=O)N2C [ERK5-IN-1]
Summary of the method: as §1

For primary AML patient cells (S072), the viability (Quizartinib; 0.016 µM) was 1.04, the viability (Quizartinib; 0.08 µM) was 1.12 and the viability (Quizartinib; 0.4 µM) was 0.936. It also gave a viability (Quizartinib; 2 µM) of 1.03, a viability (Quizartinib; 10 µM) of 0.855 and a viability (AZD7762; 0.024 µM) of 0.762. It also gave a viability (AZD7762; 0.12 µM) of 0.572, a viability (AZD7762; 0.6 µM) of 0.514 and a viability (AZD7762; 3 µM) of 0.446. It also gave a viability (AZD7762; 15 µM) of 0.33, a viability (MLN-120B; 0.024 µM) of 0.899 and a viability (MLN-120B; 0.12 µM) of 0.891. For the same test system, the viability (MLN-120B; 0.6 µM) was 1.04, the viability (MLN-120B; 3 µM) was 0.858 and the viability (MLN-120B; 15 µM) was 0.795. It also gave a viability (Tozasertib; 0.024 µM) of 0.931, a viability (Tozasertib; 0.12 µM) of 0.888 and a viability (Tozasertib; 0.6 µM) of 0.851. For the same test system, the viability (Tozasertib; 3 µM) was 0.783, the viability (Tozasertib; 15 µM) was 0.464 and the viability (Idarubicin; 0.024 µM) was 0.842. It also gave a viability (Idarubicin; 0.12 µM) of 0.543, a viability (Idarubicin; 0.6 µM) of 0.0696 and a viability (Idarubicin; 3 µM) of 0.0437. The viability (Idarubicin; 15 µM) was 0.0252, the viability (ONO-4059; 0.0016 µM) was 1.3 and the viability (ONO-4059; 0.008 µM) was 0.906. It also gave a viability (ONO-4059; 0.04 µM) of 0.925, a viability (ONO-4059; 0.2 µM) of 0.935 and a viability (ONO-4059; 1 µM) of 0.972. It also gave a viability (BI6727; 0.024 µM) of 0.885, a viability (BI6727; 0.12 µM) of 0.787 and a viability (BI6727; 0.6 µM) of 0.635. The viability (BI6727; 3 µM) was 0.35, the viability (BI6727; 15 µM) was 0.212 and the viability (Vemurafenib; 0.024 µM) was 0.935. The viability (Vemurafenib; 0.12 µM) was 1.06, the viability (Vemurafenib; 0.6 µM) was 0.941 and the viability (Vemurafenib; 3 µM) was 1.07. For the same test system, the viability (Vemurafenib; 15 µM) was 1.08, the viability (EPZ-5676; 0.0032 µM) was 0.86 and the viability (EPZ-5676; 0.016 µM) was 1.09. It also gave a viability (EPZ-5676; 0.08 µM) of 0.96, a viability (EPZ-5676; 0.4 µM) of 0.883 and a viability (EPZ-5676; 2 µM) of 1.07. It also gave a viability ([1]; 0.024 µM) of 0.405, a viability ([1]; 0.12 µM) of 0.353 and a viability ([1]; 0.6 µM) of 0.267. It also gave a viability ([1]; 3 µM) of 0.252, a viability ([1]; 15 µM) of 0.124 and a viability (Cladribine; 0.024 µM) of 0.724. It also gave a viability (Cladribine; 0.12 µM) of 0.626, a viability (Cladribine; 0.6 µM) of 0.422 and a viability (Cladribine; 3 µM) of 0.275. For the same test system, the viability (Cladribine; 15 µM) was 0.186, the viability (Carfilzomib; 0.00016 µM) was 0.832 and the viability (Carfilzomib; 0.0008 µM) was 0.644. For the same test system, the viability (Carfilzomib; 0.004 µM) was 0.069, the viability (Carfilzomib; 0.02 µM) was 0.0501 and the viability (Carfilzomib; 0.1 µM) was 0.0466. It also gave a viability ([2]; 0.024 µM) of 0.887, a viability ([2]; 0.12 µM) of 0.763 and a viability ([2]; 0.6 µM) of 0.673. The viability ([2]; 3 µM) was 0.297, the viability ([2]; 15 µM) was 0.175 and the viability (Panobinostat; 0.00064 µM) was 1.05. For the same test system, the viability (Panobinostat; 0.0032 µM) was 0.751, the viability (Panobinostat; 0.016 µM) was 0.302 and the viability (Panobinostat; 0.08 µM) was 0.218. The viability (Panobinostat; 0.4 µM) was 0.202, the viability (ERK5-IN-1; 0.024 µM) was 0.944 and the viability (ERK5-IN-1; 0.12 µM) was 0.813. It also gave a viability (ERK5-IN-1; 0.6 µM) of 0.709, a viability (ERK5-IN-1; 3 µM) of 0.568 and a viability (ERK5-IN-1; 15 µM) of 0.264.

With primary CLL patient cells (S043) the viability (Quizartinib; 0.016 µM) was 0.982, the viability (Quizartinib; 0.08 µM) was 1.07 and the viability (Quizartinib; 0.4 µM) was 1.13. For the same test system, the viability (Quizartinib; 2 µM) was 1.11, the viability (Quizartinib; 10 µM) was 1.14 and the viability (AZD7762; 0.024 µM) was 0.644. The viability (AZD7762; 0.12 µM) was 0.572, the viability (AZD7762; 0.6 µM) was 0.545 and the viability (AZD7762; 3 µM) was 0.501. It also gave a viability (AZD7762; 15 µM) of 0.517, a viability (MLN-120B; 0.024 µM) of 0.817 and a viability (MLN-120B; 0.12 µM) of 0.838. The viability (MLN-120B; 0.6 µM) was 0.837, the viability (MLN-120B; 3 µM) was 0.827 and the viability (MLN-120B; 15 µM) was 0.797. It also gave a viability (Tozasertib; 0.024 µM) of 0.997, a viability (Tozasertib; 0.12 µM) of 0.94 and a viability (Tozasertib; 0.6 µM) of 0.981. It also gave a viability (Tozasertib; 3 µM) of 0.9, a viability (Tozasertib; 15 µM) of 0.642 and a viability (Idarubicin; 0.024 µM) of 0.88. For the same test system, the viability (Idarubicin; 0.12 µM) was 0.236, the viability (Idarubicin; 0.6 µM) was 0.0477 and the viability (Idarubicin; 3 µM) was 0.0213. The viability (Idarubicin; 15 µM) was 0.0214, the viability (ONO-4059; 0.0016 µM) was 0.789 and the viability (ONO-4059; 0.008 µM) was 0.742. The viability (ONO-4059; 0.04 µM) was 0.688, the viability (ONO-4059; 0.2 µM) was 0.72 and the viability (ONO-4059; 1 µM) was 0.723. For the same test system, the viability (BI6727; 0.024 µM) was 0.861, the viability (BI6727; 0.12 µM) was 0.872 and the viability (BI6727; 0.6 µM) was 0.796. For the same test system, the viability (BI6727; 3 µM) was 0.742, the viability (BI6727; 15 µM) was 0.51 and the viability (Vemurafenib; 0.024 µM) was 0.997. It also gave a viability (Vemurafenib; 0.12 µM) of 0.977, a viability (Vemurafenib; 0.6 µM) of 1.03 and a viability (Vemurafenib; 3 µM) of 0.969. For the same test system, the viability (Vemurafenib; 15 µM) was 1.07, the viability (EPZ-5676; 0.0032 µM) was 1.06 and the viability (EPZ-5676; 0.016 µM) was 1.28. For the same test system, the viability (EPZ-5676; 0.08 µM) was 1.13, the viability (EPZ-5676; 0.4 µM) was 1.02 and the viability (EPZ-5676; 2 µM) was 0.951. The viability ([1]; 0.024 µM) was 0.886, the viability ([1]; 0.12 µM) was 0.841 and the viability ([1]; 0.6 µM) was 0.766. It also gave a viability ([1]; 3 µM) of 0.752, a viability ([1]; 15 µM) of 0.458 and a viability (Cladribine; 0.024 µM) of 0.922. It also gave a viability (Cladribine; 0.12 µM) of 0.665, a viability (Cladribine; 0.6 µM) of 0.519 and a viability (Cladribine; 3 µM) of 0.393. It also gave a viability (Cladribine; 15 µM) of 0.31, a viability (Carfilzomib; 0.00016 µM) of 1.09 and a viability (Carfilzomib; 0.0008 µM) of 0.553. The viability (Carfilzomib; 0.004 µM) was 0.0303, the viability (Carfilzomib; 0.02 µM) was 0.0208 and the viability (Carfilzomib; 0.1 µM) was 0.0273. It also gave a viability ([2]; 0.024 µM) of 0.9, a viability ([2]; 0.12 µM) of 0.886 and a viability ([2]; 0.6 µM) of 0.755. The viability ([2]; 3 µM) was 0.396, the viability ([2]; 15 µM) was 0.0668 and the viability (Panobinostat; 0.00064 µM) was 0.921. It also gave a viability (Panobinostat; 0.0032 µM) of 0.809, a viability (Panobinostat; 0.016 µM) of 0.398 and a viability (Panobinostat; 0.08 µM) of 0.0971. It also gave a viability (Panobinostat; 0.4 µM) of 0.0796, a viability (ERK5-IN-1; 0.024 µM) of 0.822 and a viability (ERK5-IN-1; 0.12 µM) of 0.865. It also gave a viability (ERK5-IN-1; 0.6 µM) of 0.784, a viability (ERK5-IN-1; 3 µM) of 0.728 and a viability (ERK5-IN-1; 15 µM) of 0.533.
